Test [1] concerns Msx-1, Msx-2, Sox-2, Oct-4 and Nanog in adult human fibroblasts (CRL-2352). The test is described as follows: Immunocytochemistry / western blot for stem cell transcription factors in FGF2-cultured fibroblasts. The format is cell-based. On the procedure:
(§1) Adult human fibroblasts (CRL-2352, ATCC) were cultured in conditions of 37° C., 5% CO2, 5% O2 90% N2 were seeded into 24 well plates (BD Falcon) either without substrate or with 15 mm Thermanox® coverslips (Nalge Nunc) at 5,000 cells per well in medium consisting of DMEM with 4 mM fresh L-glutamine: Ham's F12 medium (50:50) supplemented with 1×TCH serum replacement (Protide Pharmaceuticals), 1×ITS-X (Invritrogen), 2% FetalClone III (Hyclone), and 4 ng/ml FGF2 (Chemicon). After 5 days, the cells were washed with DPBS w/o Ca/Mg (Mediatech) and fixed in methanol (−20° C.) for 10 min, washed with DPBS and stored in DPBS at 4° C. until use. For detection of nuclear antigens (Msx-1, Msx-2, Sox-2, Oct-4 and Nanog), enhanced nuclear membrane permeabilization was performed by incubation with 1.5 N HCl for 20 min, followed by 3 washes (5 min) in PBS. For immuno-cytochemistry, cells were washed with PBS/Tween (PBS, MediaTech with 0.05% Tween-20, Biorad) and blocked for 30 min at RT with PBS containing 0.05% Tween, 5% FBS, and 1% BSA). Primary antibodies (1:200 dilution) were added in blocking solution for 30 min at RT. Cells were washed 4× in PBS/Tween and Alexafluor-568 labeled appropriate secondary antibody diluted 1:1000 in blocking solution added for 30 min. Cells were washed 4× in PBS/Tween and stored in PBS at 4 C until image analysis. Antibodies used were: Msx-1 (SantaCruz, sc-17726), Msx-2 (Santa Cruz, sc-17729), Sox-2 (Abeam, ab15830), Oct4 (Santa Cruz, sc-8630), Nanog (abeam ab21624) FGF receptor-1 (Abgent, AP7636a), FGF Receptor-2 (Abgent, AP7636a), FGF2 (N-terminus, Santa Cruz sc-1390), FGF2 (internal, Santa Cruz sc-79), fibroblast specific protein (FSP, Sigma). Coverslips were removed and mounted onto glass slides in 80% glycerol in PBS containing 0.1% Na-Azide and sealed with nail polish. Cells were visualized using at Olympus IX81 inverted microscope with epi-fluorescence using appropriate filters (Semrock, Inc.) and phase contrast. Images were collected using a 12 bit Hamamatzu CCD camera (Model C4742-80-12AG) and images processes using Slidebook®.
Fibroblasts were seeded into 24 well plates (BD Falcon) with 15 mm Thermanox® coverslips (Nunc) or #2 12 mm round glass coverslips (VWR) at 5,000 cells per well in medium consisting of DMEM with 4 mM fresh L-glutamine: Ham's F12 medium (60:40) supplemented with 1×TCH serum replacement (Protide Pharmaceuticals), 1×ITS-X (Invitrogen), 2% FetalClone III (Hyclone) and cultured at 37° C., 5% CO2, 5% O2 and 90% N2. For FGF2 treatments, FGF2 (4 ng/ml) was added to the medium at the time of seeding. After 7 days, the cells were washed with DPBS w/o Ca/Mg (Mediatech) and fixed in methanol (−20° C.) for 10 min, washed with DPBS and stored in DPBS at 4 C until use. Cells were washed with PBS/Tween (PBS, MediaTech with 0.05% Tween-20, Biorad) and blocked for 30 min at RT with PBS containing 0.05% Tween, 5% FBS, and 1% BSA). Primary antibodies (2.5 μg/ml) were added in blocking solution for 30 min at RT. Cells were washed 4× in PBS/Tween and Alexafluor-568 labeled appropriate secondary antibody (4 μg/ml) in blocking solution added for 30 min. Cells were washed 4× in PBS/Tween and stored in PBS at 4° C. until image analysis. Antibodies used were: Oct4 (Abcam ab19857), Sox2 (Abcam, ab15830), Nanog (Abcam, ab21624, FGFR-1 (Abgent, AP7636a), FGFR-2 (Abgent, AP7636a), FGFR3 (Abcam ab10651), FGFR4 (Abcam ab41948), FGF2 (Santa Cruz, sc-1390 and sc-79). Coverslips were removed and mounted onto glass slides in 80% glycerol in PBS containing 0.1% Na-Azide and sealed with nail polish. Cells were visualized using an Olympus IX81 inverted microscope with epi-fluorescence using appropriate filters (Semrock, Inc.) and phase contrast. Images were collected using a 12 bit Hamamatzu CCD camera and processed using Slidebook®. […]

Test [2] has as its system FGFR1, FGFR2, FGFR3, FGFR4 and FGF2 in adult human dermal fibroblasts. The test is described as follows: Expression and localization of FGF2 and FGF receptors (RT-PCR, immunocytochemistry). The format is cell-based. The procedure:
as §1, with “Slidebook®. […]” for “Slidebook®.”

Entries after “also recorded” stand apart in the source; their conditions may differ.

For “FGF2: human recombinant FGF2 (Invitrogen, Chemicon or Protide), basic fibroblast growth factor”, the “effect on Oct4, Sox2 and Nanog protein” value in test [1] (FGF2 4 ng/ml, 5% O2, 7 days) is “translation and nuclear translocation”. Further, the “cells with stem-like nuclear localization of the transcription factors” value in test [1] (FGF2, lowered oxygen, 7 days of culture) was “up to 30%”. For the same substance, the “localization of Msx2, Sox2 and Oct4, Thermanox coverslips” value in test [1] (Thermanox coverslips, 2% serum, low O2, FGF2) was “detected in the nucleus; also recorded: nuclear localization of all three transcription factors”. In test [1] (culture for 2 days, preliminary dose response), the “FGF2 concentration at which Sox-2 is induced” value was 0.5 ng/mL. In addition, the “ICC for transcription factors Oct4, Sox2 and Msx1” value in test [1] (early transition of cultures grown in the presence of FGF2) is “positive”. In addition, the “localization of induced Sox2 expression” value in test [1] (preliminary dose response, before change to Thermanox coverslips) is recorded as “restricted to the cytoplasm”. For the same substance, the “expression of Msx-2, Sox-2 and Oct-4, tissue culture plastic” value in test [1] (tissue culture plastic, low O2, low serum, FGF2 4 ng/ml, 5 days) is “some cytoplasmic expression”. In addition, the FGFR4 localization entry in test [2] (FGF2 addition) is “no effect”. Further, the “localization of FGF2, FGFR1 and FGFR2 (immunocytochemistry)” value in test [2] (cells supplemented with FGF2) is on record as “in the nucleus as well as on the cell surface; also recorded: translocated to the nucleus”. The “transcription of FGF receptors or FGF2 itself” value in test [2] (regardless of the culture conditions) was “no significant effect”.

The values are drawn from US9290740B2, “Use of basic fibroblast growth factor in the de-differentiation of animal connective tissue cells” (Worcester Polytechnic Institute, priority 2008, dated 2016).
